Measured values: patent publication US20240425517A1, “NOVEL COMPOUND FOR DEGRADATION OF TARGET PROTEIN OR POLYPEPTIDE BY POLYUBIQUITINATION” (PRAZER THERAPEUTICS INC., priority 2021, published 2024)

target: T1, BRD4 proteins (Homo sapiens, UniProt O60885); experiment: Degradation of BRD4 protein in MM.1S cell lines (Western blot densitometry); format: cell-based; conditions: MM.1S cells, 10 μM, 24 hours
T1 construct: endogenous in cells; host or cells: MM.1S
Protocol: To confirm that the compounds (BRD4 degraders) of Preparation Examples I′ to IV′ reduce the amount of BRD4 proteins, experiments were performed using MM.1S cell lines, which are B cells derived from the blood of multiple myeloma patients.
Specifically, the MM.1S cells were cultured in RPMI-1640 medium supplemented with 10% fetal bovine serum and Penicillin/Streptomycin (100 U/mL), transferred to a 6-well plate, and after 24 hours, the BRD4 degraders were diluted in the culture medium and the cells were treated with 10 μM each. After treatment, the cells were incubated in a C02 incubator for 24 hours. Through protein immunoblotting (Western Blot), the degrading capacity of each compound against BRD4 proteins in cells was confirmed. After cell culture was completed according to the experimental conditions, the cells were collected and centrifuged at 1,800 rpm for 3 minutes. The cells in the precipitate were lysed with RIPA (25 mM Tris-HCl pH 7.6, 150 mM NaCl, 1% NP-40, 1% sodium deoxycholate, 0.1% SDS, 1× Protease Inhibitor Cocktail), 5× sample buffer was added, and then heated at 100° C. for 15 minutes. The prepared sample was electrophoresed with sodium dodecyl sulfate poly acrylamide gel electrophoresis (SDS-PAGE), and then the proteins in the gel were transferred to a PVDF membrane using Trans-Blot Turbo. The membrane was treated with a 5% bovine serum albumin (BSA) solution and blocked at room temperature for 2 hours, and then BRD4 and R-actin antibodies were diluted in the 5% BSA solution to react with the membrane at 4° C. overnight. After washed with PBST (0.5% Tween20) 5 times, horse radish peroxidase (HRP)-conjugated secondary antibodies were diluted in PBST to react at room temperature for 2 hours, and then washed again with a PBST solution 5 times. After enzyme-substrate reaction was carried out using a HRP substrate, a signal was measured with chemi-doc equipment, and the densitometry of a band corresponding to the BRD4 protein detected in the Preparation Example Compounds was quantitatively analyzed. The case when the degrading capacity of each BRD4 degrader was reduced by less than 40% is indicated as +, the case when the degrading capacity was reduced by 40% to 70% (exclusive of 70) is indicated as ++, the case when the degrading capacity was reduced by 70% or more is indicated as +++ in Tables 16 to 19 below. As shown in the following Tables, it was confirmed that the compounds of Preparation Examples I′ to IV′ according to the present invention have excellent degrading capacity.

SMILES	BRD4 degrading capacity (%)
COC(=O)c1cc(NC(=O)CCNC(=O)C[C@@H]2N=C(c3ccc(Cl)cc3)c3c(sc(C)c3C)-n3c(C)nnc32)ccc1C#CCN.Cl [4-126′, methyl (S)-2-(3-aminoprop-1-yn-1-yl)-5-(3-(2-(4-(4-chlorophenyl)-2,3,9-trimethyl-6H-thieno[3,2-f][1,2,4]triazolo[4,3-a][1,4]diazepin-6-yl)acetamido)propanamido)benzoate hydrochloride]	++ (the degrading capacity was reduced by 40% to 70% (exclusive of 70))
Cc1sc2c(c1C)C(c1ccc(Cl)cc1)=N[C@@H](CC(=O)NCC#Cc1ccc(C#CCN)cc1)c1nnc(C)n1-2.Cl [4-128′]	++ (the degrading capacity was reduced by 40% to 70% (exclusive of 70))
Cc1sc2c(c1C)C(c1ccc(Cl)cc1)=N[C@@H](CC(=O)NCC#Cc1cccc(C#CCN)c1)c1nnc(C)n1-2.Cl [4-129′, (S)—N-(3-(3-(3-aminoprop-1-yn-1-yl)phenyl)prop-2-yn-1-yl)-2-(4-(4-chlorophenyl)-2,3,9-trimethyl-6H-thieno[3,2-f][1,2,4]triazolo[4,3-a][1,4]diazepin-6-yl)acetamide hydrochloride]	+++ (the degrading capacity was reduced by 70% or more)
Cc1sc2c(c1C)C(c1ccc(Cl)cc1)=N[C@@H](CC(=O)NCCC#Cc1ccc(C#CCCN)o1)c1nnc(C)n1-2.Cl [4-147′, (S)—N-(4-(5-(4-aminobut-1-yn-1-yl)furan-2-yl)but-3-yn-1-yl)-2-(4-(4-chlorophenyl)-2,3,9-trimethyl-6H-thieno[3,2-f][1,2,4]triazolo[4,3-a][1,4]diazepin-6-yl)acetamide hydrochloride]	++ (the degrading capacity was reduced by 40% to 70% (exclusive of 70))
Cc1sc2c(c1C)C(c1ccc(Cl)cc1)=N[C@@H](CC(=O)NCC#CCNC(=O)c1ccc(C#CCN)o1)c1nnc(C)n1-2.Cl [4-148′, (S)-5-(3-aminoprop-1-yn-1-yl)-N-(4-(2-(4-(4-chlorophenyl)-2,3,9-trimethyl-6H-thieno[3,2-f][1,2,4]triazolo[4,3-a][1,4]diazepin-6-yl)acetamido)but-2-yn-1-yl)furan-2-carboxamide hydrochloride]	+ (the degrading capacity of each BRD4 degrader was reduced by less than 40%)
Cc1sc2c(c1C)C(c1ccc(Cl)cc1)=N[C@@H](CC(=O)NCCCCNC(=O)c1ccc(C#CCN)o1)c1nnc(C)n1-2.Cl [4-149′]	+++ (the degrading capacity was reduced by 70% or more)
Cc1sc2c(c1C)C(c1ccc(Cl)cc1)=N[C@@H](CC(=O)NCCC(=O)Nc1cccc(C#CCN)c1)c1nnc(C)n1-2.Cl [4-161′, (S)—N-(3-(3-aminoprop-1-yn-1-yl)phenyl)-3-(2-(4-(4-chlorophenyl)-2,3,9-trimethyl-6H-thieno[3,2-f][1,2,4]triazolo[4,3-a][1,4]diazepin-6-yl)acetamido)propanamide hydrochloride]	+++ (the degrading capacity was reduced by 70% or more)
Cc1sc2c(c1C)C(c1ccc(Cl)cc1)=N[C@@H](CC(=O)NCCCC(=O)Nc1ccc(C#CCN)cc1)c1nnc(C)n1-2.Cl [4-162′, (S)—N-(4-(3-aminoprop-1-yn-1-yl)phenyl)-4-(2-(4-(4-chlorophenyl)-2,3,9-trimethyl-6H-thieno[3,2-f][1,2,4]triazolo[4,3-a][1,4]diazepin-6-yl)acetamido)butanamide hydrochloride]	+++ (the degrading capacity was reduced by 70% or more)
Cc1sc2c(c1C)C(c1ccc(Cl)cc1)=N[C@@H](CC(=O)NCCCCC(=O)Nc1ccc(C#CCN)cc1)c1nnc(C)n1-2.Cl [4-163′, (S)—N-(4-(3-aminoprop-1-yn-1-yl)phenyl)-5-(2-(4-(4-chlorophenyl)-2,3,9-trimethyl-6H-thieno[3,2-f][1,2,4]triazolo[4,3-a][1,4]diazepin-6-yl)acetamido)pentanamide hydrochloride]	+++ (the degrading capacity was reduced by 70% or more)
Cc1sc2c(c1C)C(c1ccc(Cl)cc1)=N[C@@H](CC(=O)NCCCCC(=O)Nc1cccc(C#CCN)c1)c1nnc(C)n1-2.Cl [4-164′, (S)—N-(3-(3-aminoprop-1-yn-1-yl)phenyl)-5-(2-(4-(4-chlorophenyl)-2,3,9-trimethyl-6H-thieno[3,2-f][1,2,4]triazolo[4,3-a][1,4]diazepin-6-yl)acetamido)pentanamide hydrochloride]	++ (the degrading capacity was reduced by 40% to 70% (exclusive of 70))
Cc1sc2c(c1C)C(c1ccc(Cl)cc1)=N[C@@H](CC(=O)NCCCCCC(=O)Nc1ccc(C#CCN)cc1)c1nnc(C)n1-2.Cl [4-165′, (S)—N-(4-(3-aminoprop-1-yn-1-yl)phenyl)-6-(2-(4-(4-chlorophenyl)-2,3,9-trimethyl-6H-thieno[3,2-f][1,2,4]triazolo[4,3-a][1,4]diazepin-6-yl)acetamido)hexanamide hydrochloride]	+++ (the degrading capacity was reduced by 70% or more)
Cc1sc2c(c1C)C(c1ccc(Cl)cc1)=N[C@@H](CC(=O)NCCCNC(=O)c1ccc(C#CCN)o1)c1nnc(C)n1-2.Cl [4-166′]	+++ (the degrading capacity was reduced by 70% or more)
Cc1sc2c(c1C)C(c1ccc(Cl)cc1)=N[C@@H](CC(=O)NCCCCCNC(=O)c1ccc(C#CCN)o1)c1nnc(C)n1-2.Cl [4-167′, (S)-5-(3-aminoprop-1-yn-1-yl)-N-(5-(2-(4-(4-chlorophenyl)-2,3,9-trimethyl-6H-thieno[3,2-f][1,2,4]triazolo[4,3-a][1,4]diazepin-6-yl)acetamido)pentyl)furan-2-carboxamide hydrochloride]	++ (the degrading capacity was reduced by 40% to 70% (exclusive of 70))
Cc1sc2c(c1C)C(c1ccc(Cl)cc1)=N[C@@H](CC(=O)NCC#Cc1ccc(C#CCN)nc1)c1nnc(C)n1-2.Cl [4-179′, (S)—N-(3-(6-(3-aminoprop-1-yn-1-yl)pyridin-3-yl)prop-2-yn-1-yl)-2-(4-(4-chlorophenyl)-2,3,9-trimethyl-6H-thieno[3,2-f][1,2,4]triazolo[4,3-a][1,4]diazepin-6-yl)acetamide hydrochloride]	+ (the degrading capacity of each BRD4 degrader was reduced by less than 40%)
Cc1sc2c(c1C)C(c1ccc(Cl)cc1)=N[C@@H](CC(=O)NCC#Cc1ccc(C#CCON)s1)c1nnc(C)n1-2.Cl [4-223′, (S)—N-(3-(5-(3-(aminooxy)prop-1-yn-1-yl)thiophen-2-yl)prop-2-yn-1-yl)-2-(4-(4-chlorophenyl)-2,3,9-trimethyl-6H-thieno[3,2-f][1,2,4]triazolo[4,3-a][1,4]diazepin-6-yl)acetamide hydrochloride]	++ (the degrading capacity was reduced by 40% to 70% (exclusive of 70))
Cc1sc2c(c1C)C(c1ccc(Cl)cc1)=N[C@@H](CC(=O)NCCCCCCCCCNC(=O)c1ccc(C#CCN)o1)c1nnc(C)n1-2.Cl [4-225′, (S)-5-(3-aminoprop-1-yn-1-yl)-N-(9-(2-(4-(4-chlorophenyl)-2,3,9-trimethyl-6H-thieno[3,2-f][1,2,4]triazolo[4,3-a][1,4]diazepin-6-yl)acetamido)nonyl)furan-2-carboxamide hydrochloride]	+++ (the degrading capacity was reduced by 70% or more)
Cc1sc2c(c1C)C(c1ccc(Cl)cc1)=N[C@@H](CC(=O)N1CCN(c3ccc(C#CCN)cc3)CC1)c1nnc(C)n1-2.Cl [4-226′, (S)-1-(4-(4-(3-aminoprop-1-yn-1-yl)phenyl)piperazin-1-yl)-2-(4-(4-chlorophenyl)-2,3,9-trimethyl-6H-thieno[3,2-f][1,2,4]triazolo[4,3-a][1,4]diazepin-6-yl)ethan-1-one hydrochloride]	+++ (the degrading capacity was reduced by 70% or more)
Cc1sc2c(c1C)C(c1ccc(Cl)cc1)=N[C@@H](CC(=O)N1CCN(C(=O)c3ccc(C#CCN)o3)CC1)c1nnc(C)n1-2.Cl [4-227′, (S)-1-(4-(5-(3-aminoprop-1-yn-1-yl)furan-2-carbonyl)piperazin-1-yl)-2-(4-(4-chlorophenyl)-2,3,9-trimethyl-6H-thieno[3,2-f][1,2,4]triazolo[4,3-a][1,4]diazepin-6-yl)ethan-1-one hydrochloride]	++ (the degrading capacity was reduced by 40% to 70% (exclusive of 70))
COC(=O)c1ccc(NC(=O)CCCNC(=O)C[C@@H]2N=C(c3ccc(Cl)cc3)c3c(sc(C)c3C)-n3c(C)nnc32)cc1C#CCN.Cl [4-228′]	+++ (the degrading capacity was reduced by 70% or more)
Cc1sc2c(c1C)C(c1ccc(Cl)cc1)=N[C@@H](CC(=O)NCCCCCCCCNC(=O)c1ccc(C#CCN)o1)c1nnc(C)n1-2.Cl [4-235′]	++ (the degrading capacity was reduced by 40% to 70% (exclusive of 70))
